From patent US7316738B2, “Milled submicron chlorothalonil with narrow particle size distribution, and uses thereof” (Phibro-Tech, Inc., priority 2004, dated 2008)
Read-outs that look alike come from different tables or passages of the source.

Assays:
[1] = system: leafspot infestation; conditions: cited from earlier work; for Def (0.42) defoliation: 0.42 kg chlorothalonil per ha; for Def (0.84) defoliation: 0.84 kg chlorothalonil per ha; for Def (1.26) defoliation: 1.26 kg chlorothalonil per ha
[2] = cited from earlier work
[3] = cited from earlier work; remark: listed apart in the source
[4] = Particle size (Sedigraph 5100T) of chlorothalonil milled with 0.5–0.6 mm cerium-doped zirconium oxide; type: physicochemical
Protocol: The laboratory-sized vertical mill was provided by CB Mills, model# L-3-J. The mill has a 2 liter capacity and is jacketed for cooling. Unless otherwise specified, ambient water was cycled through the mill cooling jacket during operation. The internal dimensions are 3.9″ diameter by 9.1″ height. The mill uses a standard 3×3″ disk agitator (mild steel) on a stainless steel shaft, and it operates at 2,620 rpm.
The media used in this Example was 0.4–0.5 mm zirconium silicate beads supplied by CB Mills. All particle size determinations were made with a Sedigraph™ 5100T manufactured by Micromeritics, which uses x-ray detection and bases calculations of size on Stokes' Law.
The same mill and conditions were used in this experiment as in experiment 1. However, the grinding media was 0.5–0.6 mm cerium-doped zirconium oxide beads obtained from CB Mills. The density of the cerium doped zirconium oxide is ˜6.0 g/cm^3. […] The total batch weight was about 600 g.

[5] = Particle size (Sedigraph 5100T) of chlorothalonil milled with 0.4–0.5 mm zirconium silicate; type: physicochemical
[6] = 0.1 cm zirconia, 70% to 80% loading, 10 minutes, US 2004/0063847, 2003/0040569
[7] = milling time 0 mins, 0.5–0.6 mm cerium-doped zirconium oxide beads
[8] = milling time 90 mins, 0.5–0.6 mm cerium-doped zirconium oxide beads
[9] = milling time 240 mins, 0.5–0.6 mm cerium-doped zirconium oxide beads
[10] = milling time 0 mins, 0.4–0.5 mm zirconium silicate beads
[11] = milling time 30 mins, 0.4–0.5 mm zirconium silicate beads
[12] = milling time 60 mins, 0.4–0.5 mm zirconium silicate beads
[13] = milling time 90 mins, 0.4–0.5 mm zirconium silicate beads
[14] = milling time 120 mins, 0.4–0.5 mm zirconium silicate beads
[15] = milling time 150 mins, 0.4–0.5 mm zirconium silicate beads
[16] = milling time 180 mins, 0.4–0.5 mm zirconium silicate beads
[17] = milling time 270 mins, 0.4–0.5 mm zirconium silicate beads
[18] = milling time 450 mins, 0.4–0.5 mm zirconium silicate beads
[19] = 0.1 cm zirconium beads, 3000 rpm, 10 minutes, US 2004/0024099

Compound: N#Cc1c(Cl)c(Cl)c(Cl)c(C#N)c1Cl [Wet, chlorothalonil]
- Def (0.42) defoliation ([1]; 1974 data, wet milled 3 hr): 33
- Def (0.84) defoliation ([1]; 1974 data, wet milled 3 hr): 24
- Def (1.26) defoliation ([1]; 1974 data, wet milled 3 hr): 15.5
- Def (0.42) defoliation ([1]; 1974 data, wet milled 9 hr): 32
- Def (0.84) defoliation ([1]; 1974 data, wet milled 9 hr): 17.2
- Def (1.26) defoliation ([1]; 1974 data, wet milled 9 hr): 14.1
- Def (0.42) defoliation ([1]; 1974 data, wet milled 13 hr): 27
- Def (0.84) defoliation ([1]; 1974 data, wet milled 13 hr): 23
- Def (1.26) defoliation ([1]; 1974 data, wet milled 13 hr): 15.4
- Def (0.42) defoliation ([1]; 1975 data, wet milled 3 hr): 35
- Def (0.84) defoliation ([1]; 1975 data, wet milled 3 hr): 28
- Def (1.26) defoliation ([1]; 1975 data, wet milled 3 hr): 28
- Def (0.42) defoliation ([1]; 1975 data, wet milled >9 hr): 32
- Def (0.84) defoliation ([1]; 1975 data, wet milled >9 hr): 29
- Def (1.26) defoliation ([1]; 1975 data, wet milled >9 hr): 29
- <1μ, % (percentage of particles with a diameter less than 1 micron) ([2]; 1974 data, wet milled 3 hr): 8%
- med. μ (median diameter in microns) ([2]; 1974 data, wet milled 3 hr): 3.8 microns
- <1μ, % (percentage of particles with a diameter less than 1 micron) ([2]; 1974 data, wet milled 9 hr): 22%
- med. μ (median diameter in microns) ([2]; 1974 data, wet milled 9 hr): 1.75 microns
- <1μ, % (percentage of particles with a diameter less than 1 micron) ([2]; 1974 data, wet milled 13 hr): 24%
- med. μ (median diameter in microns) ([2]; 1974 data, wet milled 13 hr): 1.6 microns
- <1μ, % (percentage of particles with a diameter less than 1 micron) ([2]; 1975 data, wet milled 3 hr): 10%
- med. μ (median diameter in microns) ([2]; 1975 data, wet milled 3 hr): 3.7 microns
- <1μ, % (percentage of particles with a diameter less than 1 micron) ([2]; 1975 data, wet milled >9 hr): 22%
- med. μ (median diameter in microns) ([2]; 1975 data, wet milled >9 hr): 1.6 microns

Compound: manganese ethylenebis(dithiocarbamate) [Maneb]
- mean particle diameter ([3]; milled with 2 mm glass beads, U.S. Pat. No. 5,360,783 Example 2): 1.7–1.8 micons

Compound: CC1OC(C)OC(C)OC(C)O1 (stereo not shown) [metaldehyde]
- diameter that 90% of the particles are below [3, 6]: less than 2.5 microns
- mean volume diameter [3, 6]: less than 1.5 microns

Compound: N#Cc1c(Cl)c(Cl)c(Cl)c(C#N)c1Cl [chlorothalonil, 2,4,5,6-tetrachloro-1,3-dicyanobenzene]
- increase in number of particles per unit of mass over the standard products (factor) ([4]; after 90 minutes of milling (first statement)): more than 30
- increase in number of particles per unit of mass over the standard products (factor) ([4]; after 90 minutes of milling (second statement)): more than 1000
- Volume % With Diameter Greater Than 1 μm [4, 7]: 92 Volume %
- Volume % With Diameter Greater Than 2 μm [4, 7]: 77 Volume %
- Volume % With Diameter Greater Than 5 μm [4, 7]: 30 Volume %
- Volume % With Diameter Greater Than 10 μm [4, 7]: 8 Volume %
- Volume % With Diameter Greater Than 0.4 μm [4, 8]: 22 Volume %
- Volume % With Diameter Greater Than 1 μm [4, 8]: 3 Volume %
- Volume % With Diameter Greater Than 2 μm [4, 8]: 3 Volume %
- Volume % With Diameter Greater Than 5 μm [4, 8]: 3 Volume %
- Volume % With Diameter Greater Than 10 μm [4, 8]: 3 Volume %
- d50 [4, 8]: 0.31 μm
- Volume % With Diameter Greater Than 0.2 μm [4, 9]: 51 Volume %
- Volume % With Diameter Greater Than 0.4 μm [4, 9]: 3 Volume %
- Volume % With Diameter Greater Than 1 μm [4, 9]: 3 Volume %
- Volume % With Diameter Greater Than 2 μm [4, 9]: 2 Volume %
- Volume % With Diameter Greater Than 5 μm [4, 9]: 1 Volume %
- Volume % With Diameter Greater Than 10 μm [4, 9]: 0 Volume %
- d50 [4, 9]: 0.21 μm
- d50 ([4]; obtainable in 90 minutes, 0.5 mm zirconia milling media): less than 1 micron
- d90 ([5]; at 60 minutes, 0.4–0.5 mm zirconium silicate media): about 2 microns
- starting particle size ([5]; before wet milling): 3–4 microns
- Volume % With Diameter Greater Than 2 μm [5, 10]: 95 Volume %
- Volume % With Diameter Greater Than 5 μm [5, 10]: 48 Volume %
- Volume % With Diameter Greater Than 10 μm [5, 10]: 10 Volume %
- d50 [5, 10]: 4.9 μm
- Volume % With Diameter Greater Than 1 μm [5, 11]: 68 Volume %
- Volume % With Diameter Greater Than 2 μm [5, 11]: 21 Volume %
- Volume % With Diameter Greater Than 5 μm [5, 11]: 4 Volume %
- Volume % With Diameter Greater Than 10 μm [5, 11]: 0 Volume %
- d50 [5, 11]: 1.3 μm
- Volume % With Diameter Greater Than 1 μm [5, 12]: 50 Volume %
- Volume % With Diameter Greater Than 2 μm [5, 12]: 11 Volume %
- Volume % With Diameter Greater Than 5 μm [5, 12]: 2 Volume %
- Volume % With Diameter Greater Than 10 μm [5, 12]: 4 Volume %
- d50 [5, 12]: 1.0 μm
- Volume % With Diameter Greater Than 1 μm [5, 13]: 94 Volume %
- Volume % With Diameter Greater Than 2 μm [5, 13]: 22 Volume %
- Volume % With Diameter Greater Than 5 μm [5, 13]: 23 Volume %
- Volume % With Diameter Greater Than 10 μm [5, 13]: 18 Volume %
- d50 [5, 13]: 1.4 μm
- Volume % With Diameter Greater Than 2 μm [5, 14]: 4 Volume %
- Volume % With Diameter Greater Than 5 μm [5, 14]: 0 Volume %
- Volume % With Diameter Greater Than 10 μm [5, 14]: 2 Volume %
- Volume % With Diameter Greater Than 1 μm [5, 15]: 58 Volume %
- Volume % With Diameter Greater Than 2 μm [5, 15]: 6 Volume %
- Volume % With Diameter Greater Than 5 μm [5, 15]: 2 Volume %
- Volume % With Diameter Greater Than 10 μm [5, 15]: 0 Volume %
- Volume % With Diameter Greater Than 1 μm [5, 16]: 53 Volume %
- Volume % With Diameter Greater Than 2 μm [5, 16]: 7 Volume %
- Volume % With Diameter Greater Than 5 μm [5, 16]: 2 Volume %
- Volume % With Diameter Greater Than 10 μm [5, 16]: 2 Volume %
- Volume % With Diameter Greater Than 1 μm [5, 17]: 54 Volume %
- Volume % With Diameter Greater Than 2 μm [5, 17]: 8 Volume %
- Volume % With Diameter Greater Than 5 μm [5, 17]: 0 Volume %
- Volume % With Diameter Greater Than 10 μm [5, 17]: 2 Volume %
- Volume % With Diameter Greater Than 1 μm [5, 18]: 56 Volume %
- Volume % With Diameter Greater Than 2 μm [5, 18]: 21 Volume %
- Volume % With Diameter Greater Than 5 μm [5, 18]: 8 Volume %
- Volume % With Diameter Greater Than 10 μm [5, 18]: 12 Volume %
- d50 ([5]; within about one hour, 0.4–0.5 mm zirconium silicate media): ~1 micron
- mean volume diameter (d50) [3, 19]: less than 3 microns
- size that 90% of the number of particles are below [3, 19]: below 0.5 microns
- average particle size of the product ([3]; 40% chlorothalonil, 5.6% zinc oxide formulation, wet mill or high speed media mill, U.S. Pat. No. 5,667,795): 3 microns
- average particle size diameter ([3]; milled with 2 mm glass beads, U.S. Pat. No. 5,360,783 Test 5): 2.3 microns

Compound: N#Cc1c(Cl)c(Cl)c(Cl)c(C#N)c1Cl [Air, chlorothalonil]
- Def (0.42) defoliation ([1]; 1974 data, air milled): 39
- Def (0.84) defoliation ([1]; 1974 data, air milled): 25
- Def (1.26) defoliation ([1]; 1974 data, air milled): 19
- Def (0.42) defoliation ([1]; 1975 data, air milled): 35
- Def (0.84) defoliation ([1]; 1975 data, air milled): 34
- Def (1.26) defoliation ([1]; 1975 data, air milled): 27
- <1μ, % (percentage of particles with a diameter less than 1 micron) ([2]; 1974 data, air milled): 7%
- med. μ (median diameter in microns) ([2]; 1974 data, air milled): 3.3 microns
- <1μ, % (percentage of particles with a diameter less than 1 micron) ([2]; 1975 data, air milled): 5%
- med. μ (median diameter in microns) ([2]; 1975 data, air milled): 3.3 microns
